The target of the assay is IRAK4 (Homo sapiens (Human), UniProt Q9NWZ3). Briefly: IRAK4 kinase activity, IMAP fluorescence polarization assay. The format is biochemical. The following applies: 100 μM ATP. In short, it runs like this: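 GST-tagged IRAK4 at 0.5 nM phosphorylates 100 nM fluorescent peptide substrate with 100 μM ATP in pH 7.2 Tris buffer containing MgCl2, DTT and Tween 20, 30 min at 25 °C. Reaction stopped with IMAP binding reagent; phosphorylation read as increased fluorescence polarization.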
(In fluorescence polarisation assays a small probe gives low polarisation when free and higher when bound to something large.)

Where [1] appears, read: 0.5 nM GST tagged IRAK4, read-out: IRAK4 IC50.

Counter-ions that a name gives are not always drawn. Like-named read-outs stand apart in the source and are kept apart here.

IRAK4, sequence (Q9NWZ3 whole entry): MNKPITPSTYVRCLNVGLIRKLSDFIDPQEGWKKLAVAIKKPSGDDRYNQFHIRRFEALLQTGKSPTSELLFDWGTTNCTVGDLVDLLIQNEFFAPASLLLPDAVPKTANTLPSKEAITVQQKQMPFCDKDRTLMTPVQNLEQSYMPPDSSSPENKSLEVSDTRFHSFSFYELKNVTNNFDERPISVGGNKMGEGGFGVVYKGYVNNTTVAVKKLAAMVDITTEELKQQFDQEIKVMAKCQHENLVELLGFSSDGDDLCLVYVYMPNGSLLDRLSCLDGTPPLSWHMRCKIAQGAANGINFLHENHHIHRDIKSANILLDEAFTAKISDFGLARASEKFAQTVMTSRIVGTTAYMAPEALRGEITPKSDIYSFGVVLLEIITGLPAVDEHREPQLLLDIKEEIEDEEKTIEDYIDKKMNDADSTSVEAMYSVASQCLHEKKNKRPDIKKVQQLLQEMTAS

What is called IC50 is the concentration needed to halve the response being measured. Take `O=c1[nH]c(N2CCOCC2)nc(N[C@H]2c3ccccc3C[C@H]2O)c1-c1nc2ccccc2s1` [Example 267, 5-(benzo[d]thiazol-2-yl)-6-((1S,2R)-2-hydroxy-2,3-dihydro-1H-inden-1-ylamino)-2-morpholinopyrimidin-4(3H)-one]: where the note is “read-out: IC50”, the IC50 came to 8300 nM.
On to `O=c1[nH]c(N2CCC3CCCCC3C2)nc(N[C@@H]2CCCNC2)c1-c1nc2ccccc2s1` (stereo partly drawn) [Example 313, 5-(1,3-benzothiazol-2-yl)-(decahydroisoquinolin-2-yl)-6-[[(3R)piperidin-3-yl]amino]-3,4-dihydropyrimidin-4-one; trifluoroacetic acid], for which the IC50 (read-out: IC50) came out at 330 nM.
For the compound `CC(=O)N1CCN(c2nc(N[C@@H]3CCCNC3)c(-c3nc4ccccc4s3)c(=O)[nH]2)CC1` [Example 316, 2-(4-acetylpiperazin-1-yl)-5-(1,3-benzothiazol-2-yl)-6-[[(3R)-piperidin-3-yl]amino]-3,4-dihydropyrimidin-4-one], the IC50 (read-out: IC50) came to 450 nM.
As for `CC1(C)CN(c2nc(N[C@@H]3CCCNC3)c(-c3nc4ccccc4s3)c(=O)[nH]2)CCO1` [Example 131, (R)-5-(benzo[d]thiazol-2-yl)-2-(2,2-dimethylmorpholino)-6-(piperidin-3-ylamino)pyrimidin-4(3H)-one], for the setting “read-out: IRAK4 IC50”, the 50% inhibitory concentration (IC50) turned out to be 145 nM.
Take `CN1CCN(c2nc(N[C@@H]3CCCNC3)c(-c3nc4c(C5CC5)nccc4s3)c(=O)[nH]2)CC1` [Example 120, (R)-5-(4-cyclopropylthiazolo[4,5-c]pyridin-2-yl)-2-(4-methylpiperazin-1-yl)-6-(piperidin-3-ylamino)pyrimidin-4(3H)-one.HCl]: the IC50 under setting [1] came to 30 nM.
As for `O=c1[nH]c(N2CCC3(CCN(c4ncccn4)C3)C2)nc(N[C@@H]2CCCNC2)c1-c1nc2ccccc2s1` (stereo partly drawn) [Example 324, 5-(1,3-benzothiazol-2-yl)-6-[[(3R)-piperidin-3-yl]amino]-2-[7-(pyrimidin-2-yl)-2,7-diazaspiro[4.4]nonan-2-yl]-3,4-dihydropyrimidin-4-one trifluoroacetic acid], the 50% inhibitory concentration (IC50) (read-out: IC50) was 12 nM.
In the case of `O=c1[nH]c(N2CCOC(CCO)C2)nc(N[C@@H]2CCCNC2)c1-c1nc2ccccc2s1` (stereo partly drawn) [Example 129, 5-(benzo[d]thiazol-2-yl)-2-(2-(2-hydroxyethyl)morpholino)-6-((R)-piperidin-3-ylamino)pyrimidin-4(3H)-one], the IC50 (read-out: IRAK4 IC50) was found to be 57 nM.
`O=c1[nH]c(N2CCC3(CCN(Cc4ccccc4)C3)C2)nc(N[C@@H]2CCCNC2)c1-c1nc2ccccc2s1` (stereo partly drawn) [Example 327, 5-(1,3-benzothiazol-2-yl)-2-[7-benzyl-2,7-diazaspiro[4.4]nonan-2-yl]-6-[[(3R)-piperidin-3-yl]amino]-3,4-dihydropyrimidin-4-one; trifluoroacetic acid]: under “read-out: IC50”, the IC50 stood at 27 nM.
`O=c1[nH]c(N2CCOCC2)nc(N[C@@H]2CCCCNC2)c1-c1nc2ccccc2s1` [Example 104, (R)-6-(azepan-3-ylamino)-5-(benzo[d]thiazol-2-yl)-2-morpholinopyrimidin-4(3H)-one.HCl]: the IC50 under setting [1] worked out at 79 nM.
Take `O=c1[nH]c(N2CCOCC2)nc(N[C@@H]2CCCNC2)c1-c1nc(-c2ccc(Cl)cc2)cs1` [Example 202]: the IC50 (read-out: IRAK4 IC50) stood at 153 nM.
Turning to `CN(CCO)c1nc(N[C@@H]2CCCNC2)c(-c2nc3ccccc3s2)c(=O)[nH]1` [Example 292, (R)-5-(benzo[d]thiazol-2-yl)-2-((2-hydroxyethyl)(methyl)amino)-6-(piperidin-3-ylamino)pyrimidin-4(3H)-one], the IC50 (read-out: IC50) came to 190 nM.
In the case of `CS(=O)(=O)c1ccc(N2CCN(c3nc(N[C@@H]4CCCNC4)c(-c4nc5ccccc5s4)c(=O)[nH]3)CC2)c(Cl)c1` [Example 147, (R)-5-(benzo[d]thiazol-2-yl)-2-(4-(2-chloro-4-(methylsulfonyl)phenyl)piperazin-1-yl)-6-(piperidin-3-ylamino)pyrimidin-4(3H)-one], the IC50 (read-out: IRAK4 IC50) came out at 11 nM.
With `O=c1[nH]c(N2CCOCC2)nc(NCCNCCO)c1-c1nc2ccccc2s1` [Example 251, 5-(benzo[d]thiazol-2-yl)-6-(2-(2-hydroxyethyl-amino)ethylamino)-2-morpholino-pyrimidin-4(3H)-one], the IC50 (read-out: IC50) turned out to be 640 nM.
Regarding `CC(C)(O)C1CCN(c2nc(N[C@@H]3CCCNC3)c(-c3ccc4ccccc4n3)c(=O)[nH]2)C1` (stereo partly drawn) [Example 184, 2-(3-(2-hydroxypropan-2-yl)pyrrolidin-1-yl)-6-((R)-piperidin-3-ylamino)-5-(quinolin-2-yl)pyrimidin-4(3H)-one], the IC50 (read-out: IRAK4 IC50) worked out at 42 nM.
`CN(C)CCNc1nc(N2CCOCC2)[nH]c(=O)c1-c1nc2ccccc2s1` [Example 260, 5-(1,3-benzothiazol-2-yl)-6-[[2-(dimethylamino)ethyl]amino]-2-(morpholin-4-yl)-3,4-dihydropyrimidin-4-one]: the half-inhibitory concentration (IC50) (read-out: IC50) came to 1600 nM.
In the case of `O=c1[nH]c(NC2CC(F)(F)C2)nc(N[C@@H]2C[C@H](CO)[C@@H](O)[C@H]2O)c1-c1nc2ccccc2s1` [Example 9, 5-(Benzo[d]thiazol-2-yl)-2-(3,3-difluorocyclobutylamino)-6-((1R,2S,3R,4R)-2,3-dihydroxy-4-(hydroxymethyl)cyclopentylamino)pyrimidin-4(3H)-one.HCl], under setting [1], the IC50 stood at 324 nM.
As for `N[C@H]1C[C@H]1Nc1nc(N2CCOCC2)[nH]c(=O)c1-c1nc2ccccc2s1` [Example 247, 6-[[(1R,2S)-2-amino-cyclopropyl]amino]-5-(1,3-benzothiazol-2-yl)-2-(morpholin-4-yl)-3,4-dihydropyrimidin-4-one], the IC50 (read-out: IC50) was determined as 3000 nM.
On to `O=c1[nH]c(N2CCC2)nc(N[C@@H]2CCCNC2)c1-c1nc2ccccc2s1` [Example 288, (R)-2-(azetidin-1-yl)-5-(benzo[d]thiazol-2-yl)-6-(piperidin-3-ylamino)pyrimidin-4(3H)-one], for which the IC50 (read-out: IC50) was 2000 nM.
Consider `CC(=O)N1CCC2(CCN(c3nc(N[C@@H]4CCCNC4)c(-c4nc5ccccc5s4)c(=O)[nH]3)C2)C1` (stereo partly drawn) [Example 326, 2-[7-acetyl-2,7-diazaspiro[4.4]nonan-2-yl]-5-(1,3-benzothiazol-2-yl)-6-[[(3R)-piperidin-3-yl]amino]-3,4-dihydropyrimidin-4-one], for which, for the setting “read-out: IC50”, the IC50 was determined as 13 nM.
`O=c1[nH]c(N2CCC(F)(F)CC2)nc(N[C@@H]2CCCNC2)c1-c1nc2ccccc2s1` [Example 312]: the IC50 (read-out: IC50) was found to be 78 nM.
Take `O=c1[nH]c(C2CCN(C3CCC3)CC2)nc(N[C@@H]2CCCNC2)c1-c1nc2ccccc2s1` [Example 230, (R)-5-(1,3-benzothiazol-2-yl)-2-[1-cyclo-butylpiperidin-4-yl)-6-[(piperidin-3-yl)amino]-3,4-dihydropyrimidin-4-one]: the IC50 (read-out: IC50) was found to be 730 nM.
`COCCCNc1nc(N[C@@H]2C[C@H](CO)[C@@H](O)[C@H]2O)c(-c2nc3ccccc3s2)c(=O)[nH]1` [Example 40, 5-(Benzo[d]thiazol-2-yl)-6-(((1R,2S,3R,4R)-2,3-dihydroxy-4-(hydroxymethyl)cyclopentyl)amino)-2-((3-methoxypropyl)amino)pyrimidin-4(3H)-one HCl]: the IC50 under setting [1] is 60 nM.
The same measure, in the same setting: in the case of `NCCNc1cccc2sc(-c3c(N[C@@H]4CCCNC4)nc(N4CCOCC4)[nH]c3=O)nc12` [Example 356, 5-[4-[(2-aminoethyl)amino]-1,3-benzothiazol-2-yl]-2-(morpholin-4-yl)-6-[[(3R)-piperidin-3-yl]amino]-3,4-dihydropyrimidin-4-one] it was 16 nM.
As to `O=c1[nH]c(C2CCN(C3CCOC3)CC2)nc(N[C@@H]2CCCNC2)c1-c1nc2ccccc2s1` (stereo partly drawn) [Example 233, 5-(1,3-benzothiazol-2-yl)-2-[1-(oxolan-3-yl)piperidin-4-yl]-6-[[(3R)-piperidin-3-yl]amino]pyrimidin-4-ol], the IC50 (read-out: IC50) was 180 nM.
With `CS(=O)(=O)N1CC2(CN(c3nc(N[C@@H]4C[C@H](CO)[C@@H](O)[C@H]4O)c(-c4nc5ccccc5s4)c(=O)[nH]3)C2)C1` [Example 14, 5-(Benzo[d]thiazol-2-yl)-6-((1R,2S,3R,4R)-2,3-dihydroxy-4-(hydroxymethyl)cyclopentylamino)-2-(6-(methylsulfonyl)-2,6-diazaspiro[3.3]heptan-2-yl)pyrimidin-4(3H)-one.HCl], the IC50 under setting [1] came to 5.6 nM.
Take `O=c1[nH]c(Nc2ccccc2)nc(N[C@@H]2C[C@H](CO)[C@@H](O)[C@H]2O)c1-c1nc2ccccc2s1` [Example 53, 5-(Benzo[d]thiazol-2-yl)-6-((1R,2S,3R,4R)-2,3-dihydroxy-4-(hydroxymethyl)cyclopentylamino)-2-(phenylamino)pyrimidin-4(3H)-one.HCl]: under setting [1], the IC50 worked out at 327 nM.
On to `CCN1CCCC1CNc1nc(N2CCOCC2)[nH]c(=O)c1-c1ccc2ccccc2n1` (stereo not shown) [Example 277, 6-((1-ethylpyrrolidin-2-yl)methylamino)-2-morpholino-5-(quinolin-2-yl)pyrimidin-4(3H)-one], for which the IC50 (read-out: IC50) is 1600 nM.
As for `O=c1[nH]c(N2CCOCC2)nc(N[C@@H]2CCCNC2)c1-c1nc(-c2ccccn2)cs1` [Example 207], the IC50 (read-out: IRAK4 IC50) was 21 nM.
As to `O=c1[nH]c(N2CCOCC2)nc(N[C@@H]2C[C@H](CO)[C@@H](O)[C@H]2O)c1-c1ccc2ccccc2n1` [Example 18, 6-((1R,2S,3R,4R)-2,3-Dihydroxy-4-(hydroxymethyl)cyclopentylamino)-2-morpholino-5-(quinolin-2-yl)pyrimidin-4(3H)-one.HCl], under setting [1], the IC50 is 9.5 nM.
With `CC1(c2ccc(Cl)cc2)CN(c2nc(N[C@@H]3CCCNC3)c(-c3nc4ccccc4s3)c(=O)[nH]2)CCO1` (stereo partly drawn) [Example 319, 5-(benzo[d]thiazol-2-yl)-2-(2-(4-chlorophenyl)-2-methylmorpholino)-6-((R)-piperidin-3-ylamino)pyrimidin-4(3H)-one hydrochloride], the IC50 (read-out: IC50) is 2500 nM.
Consider `O=c1[nH]c(N2CCN(c3ccc(C(F)(F)F)cn3)CC2)nc(N[C@@H]2CCCNC2)c1-c1nc2ccccc2s1` [Example 135, (R)-5-(benzo[d]thiazol-2-yl)-6-(piperidin-3-ylamino)-2-(4-(5-(trifluoromethyl)pyridin-2-yl)piperazin-1-yl)pyrimidin-4(3H)-one], for which the IC50 (read-out: IRAK4 IC50) came to 11 nM.

Values taken from patent publication US9221809B2 (MERCK SHARP & DOHME CORP., priority 2011, dated 2015).
